Measurements published in patent publication EP4722207A1, “OXOISOINDOLINYL-SUBSTITUTED TETRAHYDROPYRIMIDINEDIONE DERIVATIVE AND USE THEREOF” (Gluetacs Therapeutics (Shanghai) Co., Ltd., priority 2023, dated 2024).

Experiments:
Format in all cases: cell-based
[1] = biological target: T1, IKZF2 (Homo sapiens, UniProt Q96SW2+Q9UKS7); assay: Western-blot assay, substrate protein degradation in hPBMCs: IKZF2; conditions: for IKZF2 substrate protein remaining %: compounds at 50 nM and 500 nM, 24 hours
T1 construct: effects of the compounds of the present disclosure on the expression of target proteins in cells; endogenous in cells; host or cells: human PBMCs (hPBMCs)

[2] = biological target: T2, IKZF3 (Homo sapiens, UniProt Q96SW2+Q9UKT9); assay: Western-blot assay, substrate protein degradation in hPBMCs: IKZF3; conditions: for IKZF3 substrate protein remaining %: compounds at 50 nM and 500 nM, 24 hours
T2 construct: effects of the compounds of the present disclosure on the expression of target proteins in cells; endogenous in cells; host or cells: human PBMCs (hPBMCs)

[3] = biological target: T3, WEE1 (Homo sapiens, UniProt P30291+Q96SW2); assay: Western-blot assay, substrate protein degradation in hPBMCs: WEE1; conditions: for WEE1 substrate protein remaining %: compounds at 50 nM and 500 nM, 24 hours
T3 construct: effects of the compounds of the present disclosure on the expression of target proteins in cells; endogenous in cells; host or cells: human PBMCs (hPBMCs)

[4] = biological target: T4, CK1α (Homo sapiens, UniProt P48729+Q96SW2); assay: Western-blot assay, substrate protein degradation in hPBMCs: CK1α; conditions: for CK1α substrate protein remaining %: compounds at 50 nM and 500 nM, 24 hours
T4 construct: effects of the compounds of the present disclosure on the expression of target proteins in cells; endogenous in cells; host or cells: human PBMCs (hPBMCs)

[5] = biological target: T5, IKZF1 (Homo sapiens, UniProt Q13422+Q96SW2); assay: Western-blot assay, substrate protein degradation in hPBMCs: IKZF1; conditions: for IKZF1 substrate protein remaining %: compounds at 50 nM and 500 nM, 24 hours
T5 construct: effects of the compounds of the present disclosure on the expression of target proteins in cells; endogenous in cells; host or cells: human PBMCs (hPBMCs)

[6] = biological target: T6, GSPT1 (Homo sapiens, UniProt P15170+Q96SW2); assay: Western-blot assay, substrate protein degradation in hPBMCs: GSPT1; conditions: for GSPT1 substrate protein remaining %: compounds at 50 nM and 500 nM, 24 hours
T6 construct: effects of the compounds of the present disclosure on the expression of target proteins in cells; endogenous in cells; host or cells: human PBMCs (hPBMCs)

[7] = 24 hours of compound treatment, 50 nM and 500 nM

T2 sequence (Q9UKT9 whole entry): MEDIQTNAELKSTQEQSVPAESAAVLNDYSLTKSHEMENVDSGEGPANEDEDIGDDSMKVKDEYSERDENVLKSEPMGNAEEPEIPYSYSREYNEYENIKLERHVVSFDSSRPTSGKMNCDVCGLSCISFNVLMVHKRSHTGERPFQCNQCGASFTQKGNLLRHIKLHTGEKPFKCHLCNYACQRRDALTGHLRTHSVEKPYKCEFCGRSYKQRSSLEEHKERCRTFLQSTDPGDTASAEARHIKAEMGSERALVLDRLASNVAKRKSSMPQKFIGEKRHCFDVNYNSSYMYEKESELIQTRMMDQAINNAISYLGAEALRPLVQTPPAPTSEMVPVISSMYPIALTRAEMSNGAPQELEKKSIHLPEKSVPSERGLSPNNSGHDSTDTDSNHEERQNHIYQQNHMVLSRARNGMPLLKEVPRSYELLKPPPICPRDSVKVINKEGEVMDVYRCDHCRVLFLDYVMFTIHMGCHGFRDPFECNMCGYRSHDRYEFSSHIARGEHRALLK
T2 sequence (Q96SW2 whole entry): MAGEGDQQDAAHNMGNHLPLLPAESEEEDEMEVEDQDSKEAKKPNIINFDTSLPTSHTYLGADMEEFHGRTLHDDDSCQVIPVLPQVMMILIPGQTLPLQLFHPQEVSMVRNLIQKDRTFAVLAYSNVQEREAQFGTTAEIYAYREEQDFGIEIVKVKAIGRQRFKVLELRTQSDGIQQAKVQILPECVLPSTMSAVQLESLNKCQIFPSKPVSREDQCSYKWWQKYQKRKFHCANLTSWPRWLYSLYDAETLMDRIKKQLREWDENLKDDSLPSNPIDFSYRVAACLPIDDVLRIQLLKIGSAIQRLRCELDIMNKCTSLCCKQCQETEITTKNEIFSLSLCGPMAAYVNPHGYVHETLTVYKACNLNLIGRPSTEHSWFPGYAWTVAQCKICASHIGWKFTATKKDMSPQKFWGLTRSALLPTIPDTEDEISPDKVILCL
T2 sequence (Q16531 whole entry partner): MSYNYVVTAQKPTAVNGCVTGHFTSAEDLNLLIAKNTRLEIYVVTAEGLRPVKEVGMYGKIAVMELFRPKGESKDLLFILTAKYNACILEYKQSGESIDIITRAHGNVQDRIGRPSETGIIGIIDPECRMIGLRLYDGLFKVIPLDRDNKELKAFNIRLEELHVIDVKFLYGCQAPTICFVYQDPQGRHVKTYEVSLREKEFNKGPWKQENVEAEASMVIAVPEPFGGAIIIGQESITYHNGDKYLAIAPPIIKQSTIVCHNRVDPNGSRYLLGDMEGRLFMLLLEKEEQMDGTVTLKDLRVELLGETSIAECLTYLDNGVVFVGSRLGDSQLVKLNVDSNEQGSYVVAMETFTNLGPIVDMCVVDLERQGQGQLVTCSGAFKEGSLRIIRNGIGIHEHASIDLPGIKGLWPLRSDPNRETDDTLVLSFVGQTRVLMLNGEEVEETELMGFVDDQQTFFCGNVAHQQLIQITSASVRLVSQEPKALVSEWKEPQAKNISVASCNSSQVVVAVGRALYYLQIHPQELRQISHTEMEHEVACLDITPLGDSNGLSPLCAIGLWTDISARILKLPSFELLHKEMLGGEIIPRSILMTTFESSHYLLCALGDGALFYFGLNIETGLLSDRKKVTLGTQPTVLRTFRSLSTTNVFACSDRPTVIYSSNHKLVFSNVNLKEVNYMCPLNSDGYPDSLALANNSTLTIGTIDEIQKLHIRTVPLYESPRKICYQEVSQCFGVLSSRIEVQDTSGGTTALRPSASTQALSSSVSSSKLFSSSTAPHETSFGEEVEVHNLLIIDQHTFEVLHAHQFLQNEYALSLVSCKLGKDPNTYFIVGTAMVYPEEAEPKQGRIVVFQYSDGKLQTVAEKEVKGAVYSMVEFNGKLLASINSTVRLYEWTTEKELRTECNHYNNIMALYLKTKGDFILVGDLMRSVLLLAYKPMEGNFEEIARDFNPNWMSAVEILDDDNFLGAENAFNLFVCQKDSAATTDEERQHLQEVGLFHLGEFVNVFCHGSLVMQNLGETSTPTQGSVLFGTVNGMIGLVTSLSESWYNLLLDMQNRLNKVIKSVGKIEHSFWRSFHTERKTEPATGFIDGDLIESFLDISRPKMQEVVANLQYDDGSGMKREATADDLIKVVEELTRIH
T5 sequence (Q13422 whole entry): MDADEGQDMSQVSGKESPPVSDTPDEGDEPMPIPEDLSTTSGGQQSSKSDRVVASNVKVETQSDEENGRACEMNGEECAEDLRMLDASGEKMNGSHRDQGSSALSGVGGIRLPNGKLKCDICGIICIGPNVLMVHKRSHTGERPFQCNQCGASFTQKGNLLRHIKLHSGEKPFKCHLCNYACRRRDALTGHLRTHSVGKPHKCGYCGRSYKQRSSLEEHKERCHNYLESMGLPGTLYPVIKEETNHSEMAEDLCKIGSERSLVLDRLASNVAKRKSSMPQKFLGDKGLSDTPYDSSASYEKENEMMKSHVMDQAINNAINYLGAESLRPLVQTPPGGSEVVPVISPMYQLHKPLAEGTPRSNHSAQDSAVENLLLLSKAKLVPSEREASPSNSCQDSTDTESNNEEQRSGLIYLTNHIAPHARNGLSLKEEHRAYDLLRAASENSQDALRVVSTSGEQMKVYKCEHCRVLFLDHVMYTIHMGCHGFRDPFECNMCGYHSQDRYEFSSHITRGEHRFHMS
T5 sequence (Q96SW2 whole entry): as the sequence (Q96SW2 whole entry) above
T5 sequence (Q16531 whole entry partner): as the sequence (Q16531 whole entry partner) above
T3 sequence (P30291 whole entry): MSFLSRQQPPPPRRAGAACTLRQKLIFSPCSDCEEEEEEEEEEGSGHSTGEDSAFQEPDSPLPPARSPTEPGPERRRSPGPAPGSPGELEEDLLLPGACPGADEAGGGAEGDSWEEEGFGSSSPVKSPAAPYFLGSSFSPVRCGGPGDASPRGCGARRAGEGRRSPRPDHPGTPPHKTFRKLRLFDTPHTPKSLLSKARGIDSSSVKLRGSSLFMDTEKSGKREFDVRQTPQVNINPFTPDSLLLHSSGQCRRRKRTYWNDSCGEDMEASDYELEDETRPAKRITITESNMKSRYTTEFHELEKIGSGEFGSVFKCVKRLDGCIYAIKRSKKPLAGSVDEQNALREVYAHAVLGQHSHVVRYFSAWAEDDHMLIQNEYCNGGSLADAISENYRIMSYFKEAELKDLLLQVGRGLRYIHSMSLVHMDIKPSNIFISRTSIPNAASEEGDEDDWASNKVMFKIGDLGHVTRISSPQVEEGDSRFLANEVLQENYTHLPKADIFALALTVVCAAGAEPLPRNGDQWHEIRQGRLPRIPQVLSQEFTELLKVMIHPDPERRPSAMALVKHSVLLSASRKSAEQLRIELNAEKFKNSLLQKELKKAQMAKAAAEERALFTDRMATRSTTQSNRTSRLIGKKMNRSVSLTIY
T3 sequence (Q96SW2 whole entry): as the sequence (Q96SW2 whole entry) above
T3 sequence (Q16531 whole entry partner): as the sequence (Q16531 whole entry partner) above
T6 sequence (P15170 whole entry): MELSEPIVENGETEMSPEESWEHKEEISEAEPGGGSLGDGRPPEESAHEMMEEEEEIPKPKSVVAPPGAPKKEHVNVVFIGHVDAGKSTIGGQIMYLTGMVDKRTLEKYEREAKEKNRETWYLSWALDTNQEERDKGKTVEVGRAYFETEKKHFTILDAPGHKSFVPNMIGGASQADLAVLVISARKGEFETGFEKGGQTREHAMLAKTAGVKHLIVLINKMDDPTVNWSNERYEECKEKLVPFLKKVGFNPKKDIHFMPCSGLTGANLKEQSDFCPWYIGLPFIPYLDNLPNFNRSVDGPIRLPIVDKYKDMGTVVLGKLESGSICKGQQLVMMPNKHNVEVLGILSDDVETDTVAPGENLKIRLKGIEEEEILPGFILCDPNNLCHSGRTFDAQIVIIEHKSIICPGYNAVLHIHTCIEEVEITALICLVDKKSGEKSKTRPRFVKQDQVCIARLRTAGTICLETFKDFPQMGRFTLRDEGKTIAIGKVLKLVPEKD
T6 sequence (Q96SW2 whole entry): as the sequence (Q96SW2 whole entry) above
T6 sequence (Q16531 whole entry partner): as the sequence (Q16531 whole entry partner) above
T4 sequence (P48729 whole entry): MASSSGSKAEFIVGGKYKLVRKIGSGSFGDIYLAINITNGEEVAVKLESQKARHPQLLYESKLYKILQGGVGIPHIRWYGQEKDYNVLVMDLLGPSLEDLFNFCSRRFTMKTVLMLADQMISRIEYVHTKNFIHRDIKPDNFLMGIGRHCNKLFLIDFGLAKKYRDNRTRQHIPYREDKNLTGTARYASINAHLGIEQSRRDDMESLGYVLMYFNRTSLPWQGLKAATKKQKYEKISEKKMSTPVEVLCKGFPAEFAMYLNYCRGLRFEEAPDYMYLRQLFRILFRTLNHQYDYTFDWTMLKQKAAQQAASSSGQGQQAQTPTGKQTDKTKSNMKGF
T4 sequence (Q96SW2 whole entry): as the sequence (Q96SW2 whole entry) above
T4 sequence (Q16531 whole entry partner): as the sequence (Q16531 whole entry partner) above

| Structure (SMILES) | IKZF2 substrate protein remaining % [1] | IKZF3 substrate protein remaining % [2] | WEE1 substrate protein remaining % [3] | CK1α substrate protein remaining % [4] | IKZF1 substrate protein remaining % [5] | GSPT1 substrate protein remaining % [6] | substrate protein remaining % IKZF2 [1, 7] | substrate protein remaining % IKZF3 [2, 7] | substrate protein remaining % WEE1 [3, 7] | substrate protein remaining % CK1α [4, 7] | substrate protein remaining % IKZF1 [5, 7] | substrate protein remaining % GSPT1 [6, 7] |
| --- | --- | --- | --- | --- | --- | --- | --- | --- | --- | --- | --- | --- |
| O=C1CCN(N2C(=O)c3ccc(CN4CCN(c5ccncc5F)CC4)cc3C2=O)C(=O)N1 [GT-07164, 2-(2,4-dioxotetrahydropyrimidin-1(2H)-yl)-5-((4-(3-fluoropyridin-4-yl)piperazin-1-yl)methyl)isoindoline-1,3-dione] | A ("A" is defined as 0% ≤ substrate protein remaining % ≤ 80%) | B ("B" is defined as 80%< substrate protein remaining %≤ 100%) | B ("B" is defined as 80%< substrate protein remaining %≤ 100%) | B ("B" is defined as 80%< substrate protein remaining %≤ 100%) | B ("B" is defined as 80%< substrate protein remaining %≤ 100%) | A ("A" is defined as 0% ≤ substrate protein remaining % ≤ 80%) |  |  |  |  |  |  |
| O=C1CCN(N2C(=O)c3ccc(CN4CCN(c5ccncc5Cl)CC4)cc3C2=O)C(=O)N1 [GT-07165, 5-((4-(3-chloropyridin-4-yl)piperazin-1-yl)methyl)-2-(2,4-dioxotetrahydropyrimidin-1(2H)-yl)isoindoline-1,3-dione] | A ("A" is defined as 0% ≤ substrate protein remaining % ≤ 80%) | B ("B" is defined as 80%< substrate protein remaining %≤ 100%) | B ("B" is defined as 80%< substrate protein remaining %≤ 100%) | B ("B" is defined as 80%< substrate protein remaining %≤ 100%) | B ("B" is defined as 80%< substrate protein remaining %≤ 100%) | A ("A" is defined as 0% ≤ substrate protein remaining % ≤ 80%) |  |  |  |  |  |  |
| O=C1CCN(N2C(=O)c3ccc(CN4CCN(c5ccnc(Cl)c5F)CC4)cc3C2=O)C(=O)N1 [GT-07166, 5-((4-(2-chloro-3-fluoropyridin-4-yl)piperazin-1-yl)methyl)-2-(2,4-dioxotetrahydropyrimidin-1(2H)-yl)isoindoline-1,3-dione] | A ("A" is defined as 0% ≤ substrate protein remaining % ≤ 80%) | B ("B" is defined as 80%< substrate protein remaining %≤ 100%) | B ("B" is defined as 80%< substrate protein remaining %≤ 100%) | B ("B" is defined as 80%< substrate protein remaining %≤ 100%) | B ("B" is defined as 80%< substrate protein remaining %≤ 100%) | A ("A" is defined as 0% ≤ substrate protein remaining % ≤ 80%) |  |  |  |  |  |  |
| O=C1CCN(N2C(=O)c3ccc(CN4CCN(c5ccnc(Br)c5F)CC4)cc3C2=O)C(=O)N1 [GT-07167, 5-((4-(2-bromo-3-fluoropyridin-4-yl)piperazin-1-yl)methyl)-2-(2,4-dioxotetrahydropyrimidin-1(2H)-yl)isoindoline-1,3-dione] | A ("A" is defined as 0% ≤ substrate protein remaining % ≤ 80%) | B ("B" is defined as 80%< substrate protein remaining %≤ 100%) | B ("B" is defined as 80%< substrate protein remaining %≤ 100%) | B ("B" is defined as 80%< substrate protein remaining %≤ 100%) | B ("B" is defined as 80%< substrate protein remaining %≤ 100%) | A ("A" is defined as 0% ≤ substrate protein remaining % ≤ 80%) |  |  |  |  |  |  |
| O=C1CCN(N2C(=O)c3ccc(CN4CCN(c5ccnc(Cl)c5Br)CC4)cc3C2=O)C(=O)N1 [GT-07168, 5-((4-(3-bromo-2-chloropyridin-4-yl)piperazin-1-yl)methyl)-2-(2,4-dioxotetrahydropyrimidin-1(2H)-yl)isoindoline-1,3-dione] | A ("A" is defined as 0% ≤ substrate protein remaining % ≤ 80%) | B ("B" is defined as 80%< substrate protein remaining %≤ 100%) | B ("B" is defined as 80%< substrate protein remaining %≤ 100%) | B ("B" is defined as 80%< substrate protein remaining %≤ 100%) | B ("B" is defined as 80%< substrate protein remaining %≤ 100%) | A ("A" is defined as 0% ≤ substrate protein remaining % ≤ 80%) |  |  |  |  |  |  |
| O=C1CCN(N2Cc3cc(CN4CCN(c5ccnc(Cl)c5Cl)CC4)ccc3C2=O)C(=O)N1 [GT-07169, 1-(5-((4-(2,3-dichloropyridin-4-yl)piperazin-1-yl)methyl)-1-oxoisoindolin-2-yl)dihydropyrimidine-2,4(1H,3H)-dione] | B ("B" is defined as 80%< substrate protein remaining %≤ 100%) | B ("B" is defined as 80%< substrate protein remaining %≤ 100%) | A ("A" is defined as 0% ≤ substrate protein remaining % ≤ 80%) | B ("B" is defined as 80%< substrate protein remaining %≤ 100%) | B ("B" is defined as 80%< substrate protein remaining %≤ 100%) | B ("B" is defined as 80%< substrate protein remaining %≤ 100%) |  |  |  |  |  |  |
| O=C1CCN(N2Cc3cc(CN4CCN(c5c(Cl)cncc5Br)CC4)ccc3C2=O)C(=O)N1 [GT-07170, 1-(5-((4-(3-bromo-5-chloropyridin-4-yl)piperazin-1-yl)methyl)-1-oxoisoindolin-2-yl)dihydropyrimidine-2,4(1H,3H)-dione] | B ("B" is defined as 80%< substrate protein remaining %≤ 100%) | B ("B" is defined as 80%< substrate protein remaining %≤ 100%) | A ("A" is defined as 0% ≤ substrate protein remaining % ≤ 80%) | B ("B" is defined as 80%< substrate protein remaining %≤ 100%) | A ("A" is defined as 0% ≤ substrate protein remaining % ≤ 80%) | B ("B" is defined as 80%< substrate protein remaining %≤ 100%) |  |  |  |  |  |  |
| O=C1CCN(N2Cc3cc(CN4CCN(c5c(F)cncc5Cl)CC4)ccc3C2=O)C(=O)N1 [GT-07171] | B ("B" is defined as 80%< substrate protein remaining %≤ 100%) | B ("B" is defined as 80%< substrate protein remaining %≤ 100%) | A ("A" is defined as 0% ≤ substrate protein remaining % ≤ 80%) | B ("B" is defined as 80%< substrate protein remaining %≤ 100%) | B ("B" is defined as 80%< substrate protein remaining %≤ 100%) | B ("B" is defined as 80%< substrate protein remaining %≤ 100%) |  |  |  |  |  |  |
| O=C1CCN(N2C(=O)c3ccc(CN4CCN(c5ncccn5)CC4)cc3C2=O)C(=O)N1 [GT-07285, 2-(2,4-dioxotetrahydropyrimidin-1(2H)-yl)-5-((4-(pyrimidin-2-yl)piperazin-1-yl)methyl)isoindoline-1,3-dione] | B ("B" is defined as 80%< substrate protein remaining %≤ 100%) | B ("B" is defined as 80%< substrate protein remaining %≤ 100%) | A ("A" is defined as 0% ≤ substrate protein remaining % ≤ 80%) | B ("B" is defined as 80%< substrate protein remaining %≤ 100%) | A ("A" is defined as 0% ≤ substrate protein remaining % ≤ 80%) | B ("B" is defined as 80%< substrate protein remaining %≤ 100%) |  |  |  |  |  |  |
| O=C1CCN(N2C(=O)c3ccc(CN4CCN(c5nccc(Cl)c5Br)CC4)cc3C2=O)C(=O)N1 [GT-07291, 5-((4-(3-bromo-4-chloropyridin-2-yl)piperazin-1-yl)methyl)-2-(2,4-dioxotetrahydropyrimidin-1(2H)-yl)isoindoline-1,3-dione] | B ("B" is defined as 80%< substrate protein remaining %≤ 100%) | B ("B" is defined as 80%< substrate protein remaining %≤ 100%) | A ("A" is defined as 0% ≤ substrate protein remaining % ≤ 80%) | B ("B" is defined as 80%< substrate protein remaining %≤ 100%) | B ("B" is defined as 80%< substrate protein remaining %≤ 100%) | A ("A" is defined as 0% ≤ substrate protein remaining % ≤ 80%) |  |  |  |  |  |  |
| O=C1CCN(N2C(=O)c3ccc(CN4CCCN(C(c5ccccc5)c5ccccc5)CC4)cc3C2=O)C(=O)N1 [GT-07295, 5-((4-benzhydryl-1,4-diazepan-1-yl)methyl)-2-(2,4-dioxotetrahydropyrimidin-1(2H)-yl)isoindoline-1,3-dione] | B ("B" is defined as 80%< substrate protein remaining %≤ 100%) | B ("B" is defined as 80%< substrate protein remaining %≤ 100%) | B ("B" is defined as 80%< substrate protein remaining %≤ 100%) | B ("B" is defined as 80%< substrate protein remaining %≤ 100%) | B ("B" is defined as 80%< substrate protein remaining %≤ 100%) | A ("A" is defined as 0% ≤ substrate protein remaining % ≤ 80%) |  |  |  |  |  |  |
| CC1(C)CCC(CN2CCN(Cc3ccc4c(c3)CN(N3CCC(=O)NC3=O)C4=O)C(C(F)(F)F)C2)=C(c2ccc(Cl)cc2)C1 (stereo not drawn) [GT-07296, 1-(5-((4-((4'-chloro-5,5-dimethyl-3,4,5,6-tetrahydro-[1,1'-biphenyl]-2-yl)methyl)-2-(trifluoromethyl)piperazin-1-yl)methyl)-1-oxoisoindolin-2-yl)dihydropyrimidine-2,4(1H,3H)-dione] |  |  |  |  |  |  | B (80%< substrate protein remaining %≤ 100%) | B (80%< substrate protein remaining %≤ 100%) | A (0% ≤ substrate protein remaining % ≤ 80%) | A (0% ≤ substrate protein remaining % ≤ 80%) | A (0% ≤ substrate protein remaining % ≤ 80%) | A (0% ≤ substrate protein remaining % ≤ 80%) |
